Source: patent US7407667B2, “Pesticidal preparations comprising copolymers” (Clariant Produkte (Deutschland) GmbH, priority 2001, dated 2008)

Key:
Type in all cases: in vivo
[1] = system: SEBEX, AMARE, GALAP, ABUTH, ECHCG, PHBPU (Total); experiment: Greenhouse herbicidal action of glyphosate test formulations, total over the six plant species; conditions: copolymer 600 g/ha where named
Method: (§1) Test formulations were prepared with in each case 200 g, 300 g and 500 g of glyphosate and in each case 600 g of the copolymers I to V in 300 l of water. The data by weight refer to 100% active ingredient and 100% adjuvant. An amount of the formulation corresponding to the ratio 300 l/ha was applied in a greenhouse to the plant species Abutilon theophrasti (ABUTH), Sesbania exaltata (SEBEX), Pharbitis purpurea (PHBPU), Galium aparine (GALAP), Amaranthus retroflexus (AMARE) and Echinochloa crus-galli (ECHCG), and, after 21 days at 20° C., the plant growth was assessed according to a % scale.
(§2) 0% means no effect and 100% means complete destruction of the types of plant.

[2] = system: Pharbitis purpurea (PHBPU); experiment: Greenhouse herbicidal action of glyphosate test formulations, plant growth assessed on a % scale; conditions: copolymer 600 g/ha where named, 300 l/ha, after 21 days at 20° C.
Method: as §1, §2

Galium aparine (GALAP) = experiment: as above; conditions: copolymer 600 g/ha where named, 300 l/ha, after 21 days at 20° C.
Method: as §1, §2

[3] = system: Sesbania exaltata (SEBEX); experiment: as above; conditions: copolymer 600 g/ha where named, 300 l/ha, after 21 days at 20° C.
Method: as §1, §2

[4] = system: Amaranthus retroflexus (AMARE); experiment: as above; conditions: copolymer 600 g/ha where named, 300 l/ha, after 21 days at 20° C.
Method: as §1, §2

[5] = system: Echinochloa crus-galli (ECHCG); experiment: as above; conditions: copolymer 600 g/ha where named, 300 l/ha, after 21 days at 20° C.
Method: as §1, §2

[6] = system: Abutilon theophrasti (ABUTH); experiment: as above; conditions: copolymer 600 g/ha where named, 300 l/ha, after 21 days at 20° C.
Method: as §1, §2

O=C(O)CNCP(=O)(O)O [Glyphosate, N-phosphonomethylglycine]
herbicidal action Total ([1]; glyphosate 200 g/ha): 10% | herbicidal action Total ([1]; glyphosate 300 g/ha): 22% | herbicidal action Total ([1]; glyphosate 500 g/ha): 38% | herbicidal action PHBPU ([2]; glyphosate 200 g/ha): 10% | herbicidal action PHBPU ([2]; glyphosate 300 g/ha): 20% | herbicidal action PHBPU ([2]; glyphosate 500 g/ha): 40% | herbicidal action GALAP (Galium aparine (GALAP); glyphosate 200 g/ha): 5% | herbicidal action GALAP (Galium aparine (GALAP); glyphosate 300 g/ha): 20% | herbicidal action GALAP (Galium aparine (GALAP); glyphosate 500 g/ha): 40% | herbicidal action SEBEX ([3]; glyphosate 200 g/ha, 0% no effect, 100% complete destruction): 10% | herbicidal action SEBEX ([3]; glyphosate 300 g/ha): 15% | herbicidal action SEBEX ([3]; glyphosate 500 g/ha): 30% | herbicidal action AMARE ([4]; glyphosate 200 g/ha): 20% | herbicidal action AMARE ([4]; glyphosate 300 g/ha): 45% | herbicidal action AMARE ([4]; glyphosate 500 g/ha): 65% | herbicidal action ECHCG ([5]; glyphosate 200 g/ha): 15% | herbicidal action ECHCG ([5]; glyphosate 300 g/ha): 20% | herbicidal action ECHCG ([5]; glyphosate 500 g/ha): 40% | herbicidal action ABUTH ([6]; glyphosate 200 g/ha): 0% | herbicidal action ABUTH ([6]; glyphosate 300 g/ha): 10% | herbicidal action ABUTH ([6]; glyphosate 500 g/ha): 15%
